Reference: PubChem BioAssay AID272 (DTP/NCI, 2004)
“And” between values parts separate entries of the source, which are not always exact repeats. Equal values may be shown once. Inconclusive results are not listed.

Test system: Lewis lung carcinoma i.m., BDF1 mice, T/C %
Assay: NCI In Vivo Anticancer Drug Screen. Data for tumor model Lewis Lung Carcinoma (intramuscular) in B6D2F1 (BDF1) mice
Conditions: schedule: Q01DX011 (ip)
Outline: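 Antitumour activity is assessed in transplanted-tumour mice. Endpoint is survival or tumour size, normalised to vehicle-dosed controls (T/C).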

[1] = endpoint: median survival time, dose: 100.0 mg/kg/injection, vehicle: saline, higher = longer survival
[2] = endpoint: median survival time, dose: 12.5 mg/kg/injection, vehicle: saline with Tween-80, higher = longer survival
[3] = endpoint: median survival time, dose: 25.0 mg/kg/injection, vehicle: saline, higher = longer survival
[4] = endpoint: median survival time, dose: 50.0 mg/kg/injection, vehicle: saline, higher = longer survival
[5] = endpoint: median survival time, dose: 6.25 mg/kg/injection, vehicle: saline, higher = longer survival
[6] = endpoint: median survival time, dose: 12.5 mg/kg/injection, vehicle: saline, higher = longer survival
[7] = endpoint: median survival time, dose: 3.12 mg/kg/injection, vehicle: saline, higher = longer survival

With `Oc1ccc(I)c2cccnc12` the T/C (endpoint: mean tumor weight (est.), dose: 100.0 mg/kg/injection, vehicle: saline, higher = larger tumour) was 109 % of control and the T/C [1] was 95 % of control.
For `C[C@]12CC[C@H]3[C@@H](CC[C@]4(O)C[C@@H](O)CC[C@]34C=O)[C@@]1(O)CC[C@@H]2C1=CC(=O)OC1`, the T/C [2] was 106 % of control and the T/C (endpoint: median survival time, dose: 50.0 mg/kg/injection, vehicle: saline with Tween-80, higher = longer survival) was 115 % of control.
`COc1ccc(N=O)c(O)c1` was tested, and the T/C [3] was 97 % of control, the T/C [4] was 100 % of control and the T/C [1] was 110 % of control.
With `O=c1n(CC2CO2)c(=O)n(CC2CO2)c(=O)n1CC1CO1` (stereo unspecified) the T/C (endpoint: median survival time, dose: 20.0 mg/kg/injection, vehicle: saline, higher = longer survival) was 115 % of control, the T/C (endpoint: median survival time, dose: 30.0 mg/kg/injection, vehicle: saline, higher = longer survival) was 120 % of control and 122 % of control and the T/C (endpoint: median survival time, dose: 40.0 mg/kg/injection, vehicle: saline, higher = longer survival) was 117 % of control and 124 % of control. The T/C (endpoint: median survival time, dose: 70.0 mg/kg/injection, vehicle: saline, higher = longer survival) was 114 % of control, the T/C (endpoint: median survival time, dose: 80.0 mg/kg/injection, vehicle: saline, higher = longer survival) was 90 % of control and the T/C (endpoint: median survival time, dose: 90.0 mg/kg/injection, vehicle: saline, higher = longer survival) was 115 % of control.
With `CC(=O)c1c(O)c(C)c(O)c2c1OC1=CC(=O)C(C(C)=O)C(=O)C12C` (stereo unspecified) the T/C (endpoint: mean tumor weight, dose: 53.0 mg/kg/injection, vehicle: other, higher = larger tumour) was 110 % of control, the T/C (endpoint: mean tumor weight, dose: 79.0 mg/kg/injection, vehicle: other, higher = larger tumour) was 92 % of control and the T/C (endpoint: mean tumor weight, dose: 118.0 mg/kg/injection, vehicle: other, higher = larger tumour) was 105 % of control. For the same molecule, the T/C (endpoint: mean tumor weight, dose: 177.0 mg/kg/injection, vehicle: other, higher = larger tumour) was 77 % of control, the T/C (endpoint: median survival time, dose: 53.0 mg/kg/injection, vehicle: other, higher = longer survival) was 98 % of control and the T/C (endpoint: median survival time, dose: 79.0 mg/kg/injection, vehicle: other, higher = longer survival) was 103 % of control. The T/C (endpoint: median survival time, dose: 177.0 mg/kg/injection, vehicle: other, higher = longer survival) was 96 % of control.
In the case of `O=S(=O)(O)C(Nc1ccccc1)c1ccccc1` (stereo unspecified), the T/C (endpoint: mean tumor weight, dose: 200.0 mg/kg/injection, vehicle: water, higher = larger tumour) is reported as 79 % of control and the T/C (endpoint: mean tumor weight, dose: 400.0 mg/kg/injection, vehicle: water, higher = larger tumour) is reported as 58 % of control.
In the case of `Clc1ccc2nc(CI)c(CI)nc2c1`, the T/C (endpoint: mean tumor weight (est.), dose: 3.12 mg/kg/injection, vehicle: saline with Tween-80, higher = larger tumour) is reported as 78 % of control, the T/C (endpoint: mean tumor weight (est.), dose: 6.25 mg/kg/injection, vehicle: saline with Tween-80, higher = larger tumour) is reported as 82 % of control and the T/C (endpoint: mean tumor weight (est.), dose: 12.5 mg/kg/injection, vehicle: saline with Tween-80, higher = larger tumour) is reported as 89 % of control. For the same molecule, the T/C (endpoint: median survival time, dose: 3.12 mg/kg/injection, vehicle: saline with Tween-80, higher = longer survival) was 94 % of control, the T/C (endpoint: median survival time, dose: 6.25 mg/kg/injection, vehicle: saline with Tween-80, higher = longer survival) was 98 % of control and the T/C [2] was 88 % of control.
With `CCCCn1cnc2c(=S)nc[nH]c21` the T/C (endpoint: mean tumor weight, dose: 1.56 mg/kg/injection, vehicle: other, higher = larger tumour) was 89 % of control, the T/C (endpoint: mean tumor weight, dose: 6.25 mg/kg/injection, vehicle: other, higher = larger tumour) was 85 % of control and the T/C (endpoint: median survival time, dose: 1.56 mg/kg/injection, vehicle: other, higher = longer survival) was 94 % of control and 104 % of control. For the same molecule, the T/C (endpoint: median survival time, dose: 3.12 mg/kg/injection, vehicle: other, higher = longer survival) was 100 % of control, the T/C (endpoint: median survival time, dose: 6.25 mg/kg/injection, vehicle: other, higher = longer survival) was 97 % of control and 108 % of control and the T/C (endpoint: median survival time, dose: 12.5 mg/kg/injection, vehicle: other, higher = longer survival) was 110 % of control. The T/C (endpoint: median survival time, dose: 25.0 mg/kg/injection, vehicle: other, higher = longer survival) was 116 % of control.
With `Nc1nc2n[nH]nc2c(=O)[nH]1` the T/C (endpoint: mean tumor weight, dose: 25.0 mg/kg/injection, vehicle: other, higher = larger tumour) was 81 % of control and the T/C (endpoint: mean tumor weight, dose: 100.0 mg/kg/injection, vehicle: other, higher = larger tumour) was 64 % of control.
With `CNc1ccc(O)cc1` the T/C (endpoint: mean tumor weight (est.), dose: 6.25 mg/kg/injection, vehicle: saline, higher = larger tumour) was 97 % of control, the T/C (endpoint: mean tumor weight (est.), dose: 12.5 mg/kg/injection, vehicle: saline, higher = larger tumour) was 97 % of control and the T/C (endpoint: mean tumor weight (est.), dose: 25.0 mg/kg/injection, vehicle: saline, higher = larger tumour) was 89 % of control. The T/C (endpoint: mean tumor weight (est.), dose: 50.0 mg/kg/injection, vehicle: saline, higher = larger tumour) was 82 % of control, the T/C [5] was 101 % of control and the T/C [6] was 105 % of control. For the same molecule, the T/C [3] was 100 % of control and the T/C [4] was 101 % of control.
With `NC(C(=O)O)C(F)(F)C(=O)O` (stereo unspecified) the T/C [7] was 109 % of control, the T/C [5] was 100 % of control and the T/C [6] was 104 % of control.
With `O=[N+]([O-])O.[Ga]` the T/C (endpoint: mean tumor weight, dose: 3.12 mg/kg/injection, vehicle: saline, higher = larger tumour) was 101 % of control, the T/C (endpoint: mean tumor weight, dose: 6.25 mg/kg/injection, vehicle: saline, higher = larger tumour) was 104 % of control and the T/C (endpoint: mean tumor weight, dose: 12.5 mg/kg/injection, vehicle: saline, higher = larger tumour) was 85 % of control. The T/C (endpoint: mean tumor weight, dose: 25.0 mg/kg/injection, vehicle: saline, higher = larger tumour) was 84 % of control, the T/C [7] was 102 % of control and the T/C [5] was 97 % of control. For the same molecule, the T/C [6] was 106 % of control and the T/C [3] was 93 % of control.
With `O=C1NC(O)CCN1C1OC(CO)C(O)C1O` (stereo unspecified) the T/C (endpoint: median survival time, dose: 25.0 mg/kg/injection, vehicle: water, higher = longer survival) was 89 % of control, the T/C (endpoint: median survival time, dose: 50.0 mg/kg/injection, vehicle: water, higher = longer survival) was 93 % of control and the T/C (endpoint: median survival time, dose: 400.0 mg/kg/injection, vehicle: water, higher = longer survival) was 116 % of control.
In the case of `COc1ccc2c(Nc3ccc(NS(C)(=O)=O)cc3)c3ccccc3nc2c1`, the T/C (endpoint: mean tumor weight, dose: 12.5 mg/kg/injection, vehicle: saline with Tween-80, higher = larger tumour) is reported as 52 % of control and the T/C [2] is reported as 107 % of control.
